≈ marks a conversion by molar mass, not a printed value. Entries after “also recorded” stand apart in the source; their conditions may differ. Counter-ions that a name gives are not always drawn.
Assays:
IL-8 = assay: P. acnes-induced IL-8 release in THP-1 cells (ELISA); assay type: cell-based
Method: (§1) Method: Preparation of Stimulant for Inflammation: P. acnes culture suspension was prepared in PBS and the cell number in the suspension was adjusted to approximately 5×10^8 CFU/ml by measuring the cell density using a Densimat. The bacterial suspension was then heat killed at 80° C. for 30 min and stored at −80° C. until further use.
(§2) Cells were seeded in a 96-well format (2×10^5 THP-1 cells per well) in media containing 10% FBS. The cells were stimulated to induce inflammatory cytokines using 3 McFarland equivalent heat-killed P. acnes. Cells in control wells were treated with PBS. One hour after induction with P. acnes, test agents were added to the induced cells at appropriate concentrations to be tested (compound 91 at 25 μg/ml). The plates were incubated at 37° C. for 24 hours. After 24 h, the plates were centrifuged to pellet the cells and the supernatants were collected. The cell culture supernatants thus obtained were analyzed for levels of cytokines (IL-1α, IL-1β, IL-6 and IL-8) by ELISA using R&D Systems kits for individual cytokines following the manufacturer's instructions.
Preparation of stimulant for inflammation: P. acnes culture suspension was prepared in PBS and the cell number in the suspension was adjusted to approximately 5×10^8 CFU/ml by measuring the cell density using a Densimat. The bacterial suspension was then heat killed at 80° C. for 30 min and stored at −80° C. until further use.
Cells were seeded in a 96-well format (2×10^5 THP-1 cells per well) in media containing 10% FBS. The cells were stimulated to induce inflammatory cytokines using 3 McFarland equivalent heat-killed P. acnes. Cells in control wells were treated with PBS. One hour after induction with P. acnes, test agents were added to the induced cells at appropriate concentrations (Besifloxacin at 10 and 30 μg/ml; Adapalene at 0.04 and 0.4 μg/ml). The plates were incubated at 37° C. for 24 hours. After 24 h, the plates were centrifuged to pellet the cells and the supernatants were collected. The cell culture supernatants thus obtained were analyzed for cytokine levels (IL-6 and IL-8) by ELISA using R&D Systems kits for individual cytokines following the manufacturer's instructions.

IL-6 = assay: P. acnes-induced IL-6 release in THP-1 cells (ELISA); assay type: cell-based
[1] = pH dependent solubility of besifloxacin.HCl; assay type: physicochemical; conditions: pH of about 4.5 or below solubilizes the drug
Description: Preparation of drug-loaded (suspended form) gel via a conventional method usually leads to exposure of the drug to a wide range of pH conditions, which may lead to, in some instances, solubilization of the drug, and then reprecipitation. This solubilization-reprecipitation phenomenon in most cases leads to change in original particle size, impurity profile or crystal pattern, or others. […] The solubilized besifloxacin then, upon increase in pH (during formulation preparation), reprecipitates, which may result in one or more unwanted changes.

THP-1 cells = assay: Viability of THP-1 cells under treatment; assay type: cell-based; conditions: Example 61; each tested condition
P. acnes MTCC 1951 = assay: MIC by micro broth dilution (Alamar blue), clindamycin-susceptible P. acnes; assay type: cell-based, Propionibacterium acnes; conditions: for MIC: Cutibacterium acnes, MTCC1951, read-out: MIC Susceptible P. acnes (1951) strain; for Activity / bacterial killing, dose response curve (in words): clindamycin-susceptible MTCC 1951
Method in brief: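 P. acnes in BHI broth, inoculum adjusted to 0.5 McFarland and diluted 100-fold, exposed to serially diluted compound at 37° C. for 48-72 h under anaerobic conditions. Growth read by OD at 595 nm; MIC recorded after Alamar blue addition.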

E. coli DNA gyrase = target: T1, E. coli DNA gyrase (Escherichia coli, UniProt P0AES4+P0AES6); assay: DNA gyrase super-coiling activity assay (Topogen kit, relaxed pHOT1 plasmid); assay type: biochemical; conditions: 1 μM and 2.5 μM
T1 construct: purchased Topogen Inc
Method: DNA super-coiling activity was assayed using DNA gyrase assay kit (Topogen Inc.) with relaxed pHOT1 E. coli plasmid DNA according to manufacturer's protocol. The standard reaction mixture (20 μl) contained 35 mM Tris-HCl (pH 7.5), 24 mM KCl, 4 mM MgCl2, 2 mM dithiothreitol, 1.8 mM spermidine, 1 mM ATP, 6.5% glycerol, 0.1 mg/ml bovine serum albumin (BSA), 10 μg/ml relaxed pHOT1 plasmid DNA and 1 U of DNA gyrase. The reaction mixture was incubated at 37° C. for 1 h in presence of selected compounds/fluoroquinolone at different concentrations. The reaction was terminated by addition of ⅕ volume of loading dye (4 μl) followed by proteinase K (50 μg/ml) and again incubated at 37° C. for half an hour. 20 μl chloroform/isoamyl alcohol (24:1) was added to each tube and vortexed briefly. Thereafter, the blue aqueous phase was separated out and analyzed by 1% agarose gel electrophoresis. The gel was stained by ethidium bromide for half an hour and destained with water for 15 mins. The gel was then visualized in a trans-illuminator and photographed.

P. acnes CCARM 9010 = assay: MIC by micro broth dilution (Alamar blue), clindamycin-resistant/nonresponsive P. acnes; assay type: cell-based, Propionibacterium acnes; conditions: for MIC: Cutibacterium acnes, CCARM9010, read-out: MIC Resistant P. acnes (9010) strain; for Activity / bacterial killing, dose response curve (in words): clindamycin-nonresponsive CCARM 9010
Method: (§3) The plates were incubated at 37° C. for 48 h under anaerobic condition for P. acnes and 37° C. for 24 h for S. aureus The plates were read under Bio-Rad plate reader at 595 nm for optical density to generate the dose-response curves. The MIC of the test compound was recorded by addition of Alamar blue dye.
P. acnes (MTCC 3297, MTCC 1951& CCARM 9010) are cultured in Brain Heart Infusion (BHI) Broth at 37° C. for 48-72 h under anaerobic condition. The test compounds/formulations are initially diluted with suitable solvent and further diluted with BHI broth to get the required concentrations. Samples (100 μl) of different concentrations (prepared by serial dilution) are added to 96-well plate. To the wells, 100 μl of P. acnes BHI broth culture is added [culture turbidity adjusted against 0.5 McFarland standard (approx 1.5×10^8), and further diluted 100-fold with sterile BHI broth]. In addition Growth Control and Sterility Control are created using 100 μl each of P. acnes BHI broth culture and plain BHI broth, respectively.
Plates are incubated at 37° C. for 48-72 hrs under anaerobic condition. The plate is read under Bio-Rad plate reader @ 595 nm for optical density to generate the dose-response curves. The MIC of the test compound is recorded by addition of Alamar blue dye.

S. aureus MTCC 6908 = assay: MIC by micro broth dilution, laboratory S. aureus strain; assay type: cell-based, Staphylococcus aureus; conditions: for MIC: Staphylococcus aureus, MTCC6908, Table 6, read-out: MIC Susceptible S. aureus (6908) strain
Method: as §3
S. aureus MTCC 6908 were grown in Tryptone Soya Agar (TSA) at 37° C. for 24 hours. […] Plates were incubated at 37° C. for 24 hours. […] (2) Zone of Inhibition (ZOI): S. aureus MTCC 6908 were grown in Tryptone Soya Agar (TSA) at 37° C. for 24 hours. BHA plates are spreaded with 100 μl of 0.5 McFarland standard equal bacterial suspension. Test samples (drugs/formulations) were dissolved in water/solvent based on the solubility. Sterile disc (6 mm) were loaded with 10 μl of test samples (of various concentration of drug), and were placed above the spreaded plates. Plates were incubated at 37 C for 24 h, followed by ZOI measurement. (3) Time Kill Assay: 0.5 McFarland standard equal S. aureus culture was prepared in sterile water. Besifloxacin gels were diluted in Tryptone Soya broth (TSB) to get final concentration of 25 μg/ml. Then 900 μl of S. aureus 0.5 McFarland standard equal culture and 100 μl of diluted Besifloxacin gel was mixed to obtain final Besifloxacin concentration, 2.5 μl g/ml. Total reaction mixture (1 ml) was incubated at 37° C. in a tube rotator. After 2 and 6 h exposure, bacterial suspension was placed on Tryptone soya agar plate and incubated at 37° C. for 24 h.
Inoculated plates were incubated at 37° C. for 24 hours.

IL-1α = assay: P. acnes-induced IL-1α release in THP-1 cells (ELISA); assay type: cell-based; conditions: 25 μg/ml, 100% = P. acnes induced cells
Method: as §1, §2

IL-1β = assay: P. acnes-induced IL-1β release in THP-1 cells (ELISA); assay type: cell-based; conditions: 25 μg/ml, 100% = P. acnes induced cells
Method: as §1, §2

[2] = 25 μg/ml, THP-1 cells, 100% = P. acnes induced cells
[3] = Cells + P. acnes + 0.4 μg/ml (positive control), THP-1 cells, 24 h, Table 70
[4] = Cells + P. acnes + Dexamethasone 0.4 μg/ml, THP-1 cells, Table 71

T1 sequence (P0AES4 whole entry, one chain of several): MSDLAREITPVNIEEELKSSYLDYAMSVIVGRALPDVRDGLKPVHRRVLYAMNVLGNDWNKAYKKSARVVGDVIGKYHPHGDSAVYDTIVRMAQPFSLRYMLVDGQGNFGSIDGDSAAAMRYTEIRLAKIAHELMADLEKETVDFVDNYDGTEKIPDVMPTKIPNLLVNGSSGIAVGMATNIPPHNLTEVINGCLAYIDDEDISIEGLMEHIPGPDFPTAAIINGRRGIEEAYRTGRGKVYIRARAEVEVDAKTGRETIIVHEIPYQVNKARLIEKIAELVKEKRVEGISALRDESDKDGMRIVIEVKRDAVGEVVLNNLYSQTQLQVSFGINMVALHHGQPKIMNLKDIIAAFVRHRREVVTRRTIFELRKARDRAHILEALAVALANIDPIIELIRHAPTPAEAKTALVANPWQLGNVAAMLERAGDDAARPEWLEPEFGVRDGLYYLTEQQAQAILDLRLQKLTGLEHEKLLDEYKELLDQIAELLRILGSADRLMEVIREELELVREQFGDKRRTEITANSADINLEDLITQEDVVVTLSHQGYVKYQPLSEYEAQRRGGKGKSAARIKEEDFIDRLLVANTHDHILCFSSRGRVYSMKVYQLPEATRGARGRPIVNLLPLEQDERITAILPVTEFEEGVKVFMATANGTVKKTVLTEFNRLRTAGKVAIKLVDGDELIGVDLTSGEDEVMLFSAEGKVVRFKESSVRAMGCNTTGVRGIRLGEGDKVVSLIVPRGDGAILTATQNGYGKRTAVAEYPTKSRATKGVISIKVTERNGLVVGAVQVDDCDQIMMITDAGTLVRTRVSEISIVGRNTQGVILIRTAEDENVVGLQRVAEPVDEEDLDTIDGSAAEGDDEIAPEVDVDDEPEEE

| Compound | MIC (P. acnes MTCC 1951) | Activity / bacterial killing, dose response curve (in words) (P. acnes MTCC 1951) | Inhibition of super-coiling activity of DNA gyrase (in words) (E. coli DNA gyrase) | MIC (P. acnes CCARM 9010) | Activity / bacterial killing, dose response curve (in words) (P. acnes CCARM 9010) | MIC (S. aureus MTCC 6908) | other results |
| --- | --- | --- | --- | --- | --- | --- | --- |
| N[C@@H]1CCCCN(c2c(F)cc3c(=O)c(C(=O)O)cn(C4CC4)c3c2Cl)C1 [Besifloxacin.HCl, besifloxacin hydrochloride] |  |  |  |  |  |  | Effect on P. acnes-induced IL-8 levels (in words) (IL-8; Example 61, besifloxacin 10, 30 μg/ml, adapalene 0.04, 0.4 μg/ml): does not show similar effect; Effect on P. acnes-induced IL-6 levels (in words) (IL-6; Example 61, besifloxacin 10, 30 μg/ml, adapalene 0.04, 0.4 μg/ml, hydrochloride): significant dose-dependent decrease; also recorded: impart individual anti-inflammatory effects; Reduction in IL-6 levels compared to untreated control (IL-6; besifloxacin.HCl alone at 10 μg/ml): approximately 40%; Solubility (in words) [1]: pH dependent solubility; Cell viability compared to untreated cells (THP-1 cells): over 80% |
| Cc1oc(=O)oc1CN1CCN(c2cc3c(cc2F)c(=O)c(C(=O)OC(CCl)Cn2c([N+](=O)[O-])cnc2C)c2n3C(C)S2)CC1 (stereo not drawn) [Compound 94, 6-Fluoro-1-methyl-7-[4-(5-methyl-2-oxo-[1,3]dioxol-4-ylmethyl)-piperazin-1-yl]-4-oxo-4H-2-thia-8b-aza-cyclobuta[a]naphthalene-3-carboxylic acid 1-chloromethyl-2-(2-methyl-5-nitro-imidazol-1-yl)-ethyl ester] | 3 µg/mL (≈ 4.52 µM) | hardly showed any activity | able to inhibit the super-coiling activity | 3 µg/mL (≈ 4.52 µM) | hardly showed any activity | 2.8 µg/mL (≈ 4.22 µM) |  |
| CCCCCCCCCCCC(=O)OC(CN1CCN(c2cc3c(cc2F)c(=O)c(C(=O)O)c2n3C(C)S2)CC1)Cn1c([N+](=O)[O-])cnc1C (stereo not drawn) [Compound 113, 7-{4-[2-Dodecanoyloxy-3-(2-methyl-5-nitro-imidazol-1-yl)-propyl]-piperazin-1-yl}-6-fluoro-1-methyl-4-oxo-4H-2-thia-8b-aza-cyclobuta[a]naphthalene-3-carboxylic acid] | 8.2 µg/mL (≈ 11.5 µM) | hardly showed any activity | able to inhibit the super-coiling activity | 8 µg/mL (≈ 11.2 µM) | hardly showed any activity | > 8.2 µg/mL | Activity against S. aureus strain (in words) (S. aureus MTCC 6908): least activities |
| Cc1ncc([N+](=O)[O-])n1CC(O)CCCCN1CCN(c2cc3c(cc2F)c(=O)c(C(=O)O)c2n3C(C)S2)CC1 (stereo not drawn) [Compound 115, 6-Fluoro-7-{4-[5-hydroxy-6-(2-methyl-5-nitro-imidazol-1-yl)-hexyl]-piperazin-1-yl}-1-methyl-4-oxo-4H-2-thia-8b-aza-cyclobuta[a]naphthalene-3-carboxylic acid] | 0.4 µg/mL (≈ 0.696 µM) | more than double MIC values | able to inhibit the super-coiling activity | 0.8 µg/mL (≈ 1.39 µM) | more than double MIC values | 1.6 µg/mL (≈ 2.78 µM) |  |
| Cc1ncc([N+](=O)[O-])n1CC(O)CCN1CCN(c2cc3c(cc2F)c(=O)c(C(=O)O)c2n3C(C)S2)CC1 (stereo not drawn) [Compound 116, 6-Fluoro-7-{4-[3-hydroxy-4-(2-methyl-5-nitro-imidazol-1-yl)-butyl]-piperazin-1-yl}-1-methyl-4-oxo-4H-2-thia-8b-aza-cyclobuta[a]naphthalene-3-carboxylic acid] | 0.4 µg/mL (≈ 0.732 µM) | more than double MIC values | able to inhibit the super-coiling activity; also recorded: highly potent; also recorded: best gyrase inhibiting activity | 0.8 µg/mL (≈ 1.46 µM) | more than double MIC values | 1.64 µg/mL (≈ 3 µM) |  |
| C[C@@H]1C[C@H]2[C@@H]3CCC4=CC(=O)C=C[C@]4(C)[C@@]3(F)[C@@H](O)C[C@]2(C)[C@@]1(O)C(=O)CO [Dexamethasone] |  |  |  |  |  |  | Percentage reduction in P. acnes induced IL-8 release (IL-8; [2]): 58.78%; Expression of Cytokines IL-8 (pg/ml) Mean (IL-8; [3]): 1080.8 pg/mL; Expression of Cytokines IL-8 (pg/ml) Mean (IL-8; [4]): 1080.76 pg/mL; Percentage reduction in P. acnes induced IL-6 release (IL-6; [2]): 99.54%; Expression of Cytokines IL-6 (pg/ml) Mean (IL-6; [3]): 2.15 pg/mL; Expression of Cytokines IL-6 (pg/ml) Mean (IL-6; [4]): 2.15 pg/mL; Reduction in IL-6 levels (IL-6; Example 61, positive control): ~100%; Percentage reduction in P. acnes induced IL-1α release (IL-1α): 53.83%; Percentage reduction in P. acnes induced IL-1β release (IL-1β): 64.73% |
